Here are results for 9 compounds from patent publication US7728131B2, “Amide derivative and medicine” (Nippon Shinyaku Co., Ltd., priority 2003, dated 2010).

For data set [1], the system named is K562 cells. Put plainly: Cell growth inhibitory effect, K562 cells (Cell counting Kit-8, 72 hours).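 For all read-outs here: Read-out is formazan absorbance at 450 nm from WST-8 reduction after a 3 h color reaction, with K562 and U937 cells grown in 96-well plates.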 The following applies: for IC50: Homo sapiens, K562, 72 h, read-out: K562 cells (IC50 value: μM); for Ratio (U937 cells/K562 cells): IC50 U937 cells / IC50 K562 cells. (Tetrazolium assays rely on reduction of a dye to a coloured formazan, in cell work by metabolically active cells.)
Procedure: of Cell counting Kit-8 (5 mmol/l WST-8, 0.2 mmol/1 1-Methoxy PMS, 150 mmol/l NaCl) (manufactured by Dojindo) was added to each well. After reaction for color development in a CO2 incubator for 3 hours, an absorbance of formazan, generated by reduction of WST-8 was determined at 450 nm using Multi-level counter ARVOsx (manufactured by Wallac).
K562 cells and U937 cells (purchased from American Type Culture Collection) were cultured in a RPMI-1640 medium (manufactured by Sigma) containing 10% (v/v) fetal calf serum (FCS) (manufactures by Sigma) (RPMI-1640/FCS). K562 cells and U937 cells were seeded at a density of 5000 cells/100 μl/well and 4000 cells/100 μl/well in each of 96-hole-plate (manufactured by costar), respectively. The plate was incubated in a CO2 incubator overnight. […] The resulting solution was diluted 500 times in a RPMI-1640/FCS medium and then 100 μl of the diluent was added in a well. The plate was incubated in a CO2 incubator. After 72 hours, 20 μl

For data set [2], the system named is U937 cells. Put plainly: Cell growth inhibitory effect, U937 cells (Cell counting Kit-8, 72 hours). In kind it is cell-based. The following applies: Homo sapiens, U-937, BCR-ABL negative U937 cells, WST-8 absorbance, continuation of Table 3, read-out: U937 cells (IC50 value: nμM). On the procedure:
The plate was incubated in a CO2 incubator overnight. […] The plate was incubated in a CO2 incubator. After 72 hours, 20 μl

Bounds are passed on as bounds.

As a reminder, the IC50 is the concentration that inhibits the measured activity by half. For orientation: melting point means the temperature, or range, at which the solid turns liquid. As to `Cc1ccc(NC(=O)c2ccc(CN3CCC[C@H](N(C)C)C3)c(C(F)(F)F)c2)cc1Nc1nccc(-c2cncnc2)n1.Cl` [Example 64, (+)-4-[(S)-3-(dimethylamino)piperidinomethyl]-3-trifluoromethyl-N-{4-methyl-3-[4-(5-pyrimidinyl)pyrimidin-2-ylamino]phenyl}benzamide hydrochloride], the melting point is 195 to 198 °C. Also, in data set [1], the half-maximal inhibitory concentration (IC50) was found to be 0.0043 µM and the “Ratio (U937 cells/K562 cells)” value worked out at 860. Also, the half-maximal inhibitory concentration (IC50) in data set [2] was 3700 nM.
Consider `Cc1ccc(NC(=O)c2ccc(CN3C[C@@H](C)[C@H](N(C)C)C3)c(C(F)(F)F)c2)cc1Nc1nccc(-c2cncnc2)n1.Cl` [Example 67, (−)-4-[(3S,4R)-3-(dimethylamino)-4-methylpyrrolidin-1-ylmethyl]-3-trifluoromethyl-N-{4-methyl-3-[4-(5-pyrimidinyl)pyrimidin-2-ylamino]phenyl}benzamide hydrochloride], for which the melting point was 164 to 174 °C (dec.). Moreover, in data set [1], the IC50 came out at 0.0077 µM and the “Ratio (U937 cells/K562 cells)” value was found to be 844. Further, in data set [2], the IC50 stood at 6500 nM.
Turning to `Cc1ccc(NC(=O)c2ccc(CN3CCN(C)[C@@H](C)C3)c(C(F)(F)F)c2)cc1Nc1nccc(-c2cncnc2)n1.Cl` [Example 69, (−)-4-((S)-3,4-dimethylpiperazin-1-ylmethyl)-3-trifluoromethyl-N-{4-methyl-3-[4-(5-pyrimidinyl)pyrimidin-2-ylamino]phenyl}benzamide hydrochloride], the melting point fell in the range of 187 to 193 °C. In data set [1], the concentration for half-maximal inhibition (IC50) worked out at 0.0022 µM and the “Ratio (U937 cells/K562 cells)” value worked out at 4545. Further, the IC50 in data set [2] stood at 10000 nM.
In the same order, the values of `Cc1ccc(NC(=O)c2ccc(CN3CCN(C)[C@H](C)C3)c(C(F)(F)F)c2)cc1Nc1nccc(-c2cncnc2)n1.Cl` [Example 71, (+)-4-((R)-3,4-dimethylpiperazin-1-ylmethyl)-3-trifluoromethyl-N-{4-methyl-3-[4-(5-pyrimidinyl)pyrimidin-2-ylamino]phenyl}benzamide hydrochloride] are 186 to 194 °C, 0.0061 µM, 1098 and 6700 nM.
Consider `Cc1ccc(NC(=O)c2ccc(CN3CCN(Cc4oc(=O)oc4C)CC3)c(C(F)(F)F)c2)cc1Nc1nccc(-c2cncnc2)n1.Cl` [Example 73, 4-{4-[(5-methyl-2-oxo-1,3-dioxol-4-yl)methyl]piperazin-1-ylmethyl}-3-trifluoromethyl-N-{4-methyl-3-[4-(5-pyrimidinyl)pyrimidin-2-ylamino]phenyl}benzamide hydrochloride], for which the melting point is 218 to 226 °C (dec.). For the same compound, in data set [1], the IC50 came to 0.0023 µM and the “Ratio (U937 cells/K562 cells)” value is recorded as 4217. Besides, in data set [2], the IC50 was found to be 9700 nM.
In the case of `Cc1ccc(NC(=O)c2ccc(CN3CCN(C)CC3)c(C(F)(F)F)c2)cc1Nc1nc(-c2ccncc2)cs1.Cl` [Example 75, 4-(4-methylpipiperazin-1-ylmethyl)-3-trifluoromethyl-N-{4-methyl-3-[4-(4-pyridyl)thiazol-2-ylamino]phenyl}benzamide hydrochloride], the melting point lay within 186 to 188 °C. In data set [1], the IC50 is 0.0059 µM and the “Ratio (U937 cells/K562 cells)” value is on record as 458. Further, the IC50 in data set [2] turned out to be 2700 nM.
In the same order, the values of `Cc1ccc(NC(=O)c2ccc(CN3CC(N(C)C)C3)c(C(F)(F)F)c2)cc1Nc1nccc(-c2cncnc2)n1.Cl` [Example 77, 4-[3-(dimethylamino)azetidin-1-ylmethyl]-3-trifluoromethyl-N-{4-methyl-3-[4-(5-pyrimidinyl)pyrimidin-2-ylamino]phenyl}benzamide hydrochloride] are 159 to 167 °C (dec.), 0.018 µM, over 13699 and over 100000 nM.
In the same order, the values of `Cc1ccc(NC(=O)c2ccc(CN3CC[C@H](CN(C)C)C3)c(C(F)(F)F)c2)cc1Nc1nccc(-c2cncnc2)n1.Cl` [Example 79, 4-[(R)-3-(dimethylaminomethyl)pyrrolidin-1-ylmethyl]-3-trifluoromethyl-N-{4-methyl-3-[4-(5-pyrimidinyl)pyrimidin-2-ylamino]phenyl}benzamide hydrochloride] are 114 to 122 °C (dec.), 0.0059 µM, 4348 and 20000 nM.
For `Cc1ccc(NC(=O)c2ccc(CN3CC[C@@H](CN(C)C)C3)c(C(F)(F)F)c2)cc1Nc1nccc(-c2cncnc2)n1.Cl` [Example 81, 4-[(S)-3-(dimethylaminomethyl)pyrrolidin-1-ylmethyl]-3-trifluoromethyl-N-{4-methyl-3-[4-(5-pyrimidinyl)pyrimidin-2-ylamino]phenyl}benzamide hydrochloride], the melting point was 114 to 122 °C (dec.). Besides, in data set [1], the 50% inhibitory concentration (IC50) worked out at 0.0047 µM and the “Ratio (U937 cells/K562 cells)” value was over 27778. The IC50 in data set [2] is over 100000 nM.
